For one compound, IC50 results are on record in patent US12312350B2, “Compounds for inhibiting NLRP3 and uses thereof” (Ventus Therapeutics U.S., Inc., priority 2021, dated 2025).

For the test, the target named is NLRP3 (Homo sapiens, UniProt Q96P20). In words: Human whole blood (hWB) NLRP3 Assay.
NLRP3, sequence (Q96P20 whole entry): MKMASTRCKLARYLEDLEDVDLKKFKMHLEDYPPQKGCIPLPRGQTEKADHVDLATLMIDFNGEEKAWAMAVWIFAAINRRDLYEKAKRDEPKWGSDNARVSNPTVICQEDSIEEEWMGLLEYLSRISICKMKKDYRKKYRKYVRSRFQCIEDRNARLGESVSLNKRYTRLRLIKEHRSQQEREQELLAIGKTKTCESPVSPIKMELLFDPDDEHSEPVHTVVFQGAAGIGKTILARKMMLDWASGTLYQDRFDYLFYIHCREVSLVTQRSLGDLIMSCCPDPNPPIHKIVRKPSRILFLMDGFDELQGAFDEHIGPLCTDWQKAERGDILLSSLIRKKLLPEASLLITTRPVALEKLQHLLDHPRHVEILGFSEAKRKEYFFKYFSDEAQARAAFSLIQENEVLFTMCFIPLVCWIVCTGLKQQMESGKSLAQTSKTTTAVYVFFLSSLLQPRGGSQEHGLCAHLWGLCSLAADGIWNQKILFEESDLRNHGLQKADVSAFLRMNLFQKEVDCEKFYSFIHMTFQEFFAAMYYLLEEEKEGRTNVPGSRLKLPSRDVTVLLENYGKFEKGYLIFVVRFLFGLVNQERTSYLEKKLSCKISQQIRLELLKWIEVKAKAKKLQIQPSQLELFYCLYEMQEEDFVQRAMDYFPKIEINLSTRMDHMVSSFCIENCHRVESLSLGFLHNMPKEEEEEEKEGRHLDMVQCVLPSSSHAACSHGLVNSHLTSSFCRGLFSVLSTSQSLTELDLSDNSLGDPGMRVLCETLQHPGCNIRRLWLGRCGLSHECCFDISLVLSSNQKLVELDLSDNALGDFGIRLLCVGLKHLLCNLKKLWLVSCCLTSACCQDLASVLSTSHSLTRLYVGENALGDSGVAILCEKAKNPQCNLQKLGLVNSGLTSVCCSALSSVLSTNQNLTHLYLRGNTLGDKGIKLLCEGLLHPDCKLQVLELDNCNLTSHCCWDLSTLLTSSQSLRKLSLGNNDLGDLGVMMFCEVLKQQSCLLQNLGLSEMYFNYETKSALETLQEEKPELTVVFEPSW

Experimental: Heparin lithium coated tubes were used to collect blood from volunteers. Blood samples were distributed on 96 well plates using 90 μl per well. […] Human whole blood was drawn from healthy volunteers after obtaining written informed consent.

Regarding `Clc1ccc(-c2nnc(NCC3CCCO3)c3ccncc23)cc1` (stereo not shown), 42 µM corresponded to half-maximal inhibition (IC50).
